In the supplement of paper PMC11208160:

assay: recombinant UMI read abundance after kanamycin selection (control-corrected) (log10(CPM+1)); higher = more efficient recombination; extreme values may be limits of the assay; sequences stand for … in AGTGCAGAGAAAATCGGCCAGTTTTCTCTGCCTGCAGTCCGCATGCCGTGGGACCCCTTGGGTTCTAACCTGTTGCCTAGATTTATGCAGCGGACTGCCTTTCTCCCAAAGTGATAAACCGG…AGGTTGGTTTCACT; site = the 11-nt donor
Procedure, shortened: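 Each donor and donor-binding-loop pair was tracked by a 12-nt UMI on a plasmid carrying a promoterless kanamycin gene. With a second plasmid supplying a fixed target and T7-inducible IS621 bridge recombinase, the pool was plated in Escherichia coli on IPTG (0.07 mM) plus kanamycin or unselected. Sequencing of recombinant UMIs across the donor–target junction gave counts expressed as log10(CPM+1) after replicate averaging and control-derived scaling.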
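Note: IS621 bridge recombinase in Escherichia coli cells against a fixed T5 target plasmid.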

“TAAAGTTCATGGACCGGTTTTCCCGGTAATCCGTATTTGTA (site TAAAGTACTTA)” and “TAAAGTTCATGGACCGGTTTTCCCGGTAATCCGTATTTGTA (site TAAAGTCCTTA)” are within 0.2 log units of each other in “recombinant UMI read abundance (log10)” value: 0.0179 for the first, 0.153 for the second.

Compared with “TAAAGTTCATGGACCGGTTTTCCCGGTAATCCGTATTTGTA (site TAAAGTGCTTA)”, “TAAAGTTCATGGACCGGTTTTCCCGGTAATCCGTATTTGTA (site TAAAGTTCTTA)” is higher in “recombinant UMI read abundance (log10)” value: 0.00586 for the first, 1.59 for the second.

“TAAATAACATGGACCGGTTTTCCCGGTAATCCGTATTTGCT (site TAAATAACTAG)” and “TAAATACCATGGACCGGTTTTCCCGGTAATCCGTATTTGCG (site TAAATACCTCG)” are the same in “recombinant UMI read abundance (log10)” value: 0 for the first, 0 for the second.

Going from “TAAATGCCATGGACCGGTTTTCCCGGTAATCCGTATTTGGA (site TAAATGCCTTC)” to “TAACACGCATGGACCGGTTTTCCCGGTAATCCGTATTTGAG (site TAACACGCTCT)”, the “recombinant UMI read abundance (log10)” value rises from 0.2 to 1.48.

“TAACAGACATGGACCGGTTTTCCCGGTAATCCGTATTTGGT (site TAACAGACTAC)” and “TAACATTCATGGACCGGTTTTCCCGGTAATCCGTATTTGGG (site TAACATTCTCC)” are within 0.2 log units of each other in “recombinant UMI read abundance (log10)” value: 0.99 for the first, 0.809 for the second.

Going from “TAACCGGCATGGACCGGTTTTCCCGGTAATCCGTATTTGGT (site TAACCGGCTAC)” to “TAACGAACATGGACCGGTTTTCCCGGTAATCCGTATTTGAC (site TAACGAACTGT)”, the “recombinant UMI read abundance (log10)” value rises from 0.35 to 2.86.

“TAACGGCCATGGACCGGTTTTCCCGGTAATCCGTATTTGAA (site TAACGGCCTTT)” and “TAACTACCATGGACCGGTTTTCCCGGTAATCCGTATTTGTT (site TAACTACCTAA)” are within 0.2 log units of each other in “recombinant UMI read abundance (log10)” value: 0.00367 for the first, 0.00587 for the second.

Compared with “TAACTAGCATGGACCGGTTTTCCCGGTAATCCGTATTTGAA (site TAACTAGCTTT)”, “TAACTAGCATGGACCGGTTTTCCCGGTAATCCGTATTTGAA (site TACCTAGCTTT)” is lower in “recombinant UMI read abundance (log10)” value: 1.57 for the first, 0.34 for the second.

“TAACTAGCATGGACCGGTTTTCCCGGTAATCCGTATTTGAA (site TAGCTAGCTTT)” and “TAACTAGCATGGACCGGTTTTCCCGGTAATCCGTATTTGAA (site TATCTAGCTTT)” are within 0.2 log units of each other in “recombinant UMI read abundance (log10)” value: 0.00713 for the first, 0 for the second.

First: TAACTTACATGGACCGGTTTTCCCGGTAATCCGTATTTGAT (site TAACTTACTAT)
Second: TAAGATTCATGGACCGGTTTTCCCGGTAATCCGTATTTGTT (site AAAGATTCTAA)
The “recombinant UMI read abundance (log10)” value of the first is higher: 0.731 for the first, 0 for the second.

Going from “TAAGATTCATGGACCGGTTTTCCCGGTAATCCGTATTTGTT (site CAAGATTCTAA)” to “TAAGATTCATGGACCGGTTTTCCCGGTAATCCGTATTTGTT (site GAAGATTCTAA)”, the “recombinant UMI read abundance (log10)” value falls from 1.43 to 0.

Going from “TAAGATTCATGGACCGGTTTTCCCGGTAATCCGTATTTGTT (site TAAGATTCTAA)” to “TAAGCAGCATGGACCGGTTTTCCCGGTAATCCGTATTTGGC (site TAAGCAGCTGC)”, the “recombinant UMI read abundance (log10)” value rises from 2.02 to 2.92.

Compared with “TAAGCTGCATGGACCGGTTTTCCCGGTAATCCGTATTTGTG (site TAAGCTGCTCA)”, “TAAGCTGCATGGACCGGTTTTCCCGGTAATCCGTATTTGTG (site TCAGCTGCTCA)” is lower in “recombinant UMI read abundance (log10)” value: 0.65 for the first, 0.00238 for the second.

“TAAGCTGCATGGACCGGTTTTCCCGGTAATCCGTATTTGTG (site TGAGCTGCTCA)” and “TAAGCTGCATGGACCGGTTTTCCCGGTAATCCGTATTTGTG (site TTAGCTGCTCA)” are within 0.2 log units of each other in “recombinant UMI read abundance (log10)” value: 0.0127 for the first, 0.00901 for the second.

Compared with “TAAGGGCCATGGACCGGTTTTCCCGGTAATCCGTATTTGAG (site TAAGGGCCTCT)”, “TAAGTATCATGGACCGGTTTTCCCGGTAATCCGTATTTGAC (site CTAGTATCTGT)” is higher in “recombinant UMI read abundance (log10)” value: 0.221 for the first, 1.88 for the second.

Compared with “TAAGTATCATGGACCGGTTTTCCCGGTAATCCGTATTTGAC (site TAAGTATCTGT)”, “TAATCTACATGGACCGGTTTTCCCGGTAATCCGTATTTGAG (site TAATCTACTCT)” is lower in “recombinant UMI read abundance (log10)” value: 3.03 for the first, 0.521 for the second.

“TAATGAACATGGACCGGTTTTCCCGGTAATCCGTATTTGGG (site TAATGAACTCC)” and “TAATGAACATGGACCGGTTTTCCCGGTAATCCGTATTTGGG (site TAATGACCTCC)” are within 0.2 log units of each other in “recombinant UMI read abundance (log10)” value: 0.00333 for the first, 0.0112 for the second.

Compared with “TAATGAACATGGACCGGTTTTCCCGGTAATCCGTATTTGGG (site TAATGAGCTCC)”, “TAATGAACATGGACCGGTTTTCCCGGTAATCCGTATTTGGG (site TAATGATCTCC)” is higher in “recombinant UMI read abundance (log10)” value: 0.0277 for the first, 0.399 for the second.

“TAATGAGCATGGACCGGTTTTCCCGGTAATCCGTATTTGGA (site TAATGAGCTAC)” and “TAATGAGCATGGACCGGTTTTCCCGGTAATCCGTATTTGGA (site TAATGAGCTCC)” are the same in “recombinant UMI read abundance (log10)” value: 0.0122 for the first, 0.0122 for the second.

Going from “TAATGAGCATGGACCGGTTTTCCCGGTAATCCGTATTTGGA (site TAATGAGCTGC)” to “TAATGAGCATGGACCGGTTTTCCCGGTAATCCGTATTTGGA (site TAATGAGCTTC)”, the “recombinant UMI read abundance (log10)” value rises from 0 to 0.729.

“TAATGCGCATGGACCGGTTTTCCCGGTAATCCGTATTTGGG (site TAATGAGCTCC)” and “TAATGCGCATGGACCGGTTTTCCCGGTAATCCGTATTTGGG (site TAATGCGCTCC)” are within 0.2 log units of each other in “recombinant UMI read abundance (log10)” value: 0.0175 for the first, 0 for the second.

“TAATGCGCATGGACCGGTTTTCCCGGTAATCCGTATTTGGG (site TAATGGGCTCC)” and “TAATGCGCATGGACCGGTTTTCCCGGTAATCCGTATTTGGG (site TAATGTGCTCC)” are within 0.2 log units of each other in “recombinant UMI read abundance (log10)” value: 0.0249 for the first, 0.00404 for the second.

“TAATGGCCATGGACCGGTTTTCCCGGTAATCCGTATTTGCA (site AAATGGCCTTG)” and “TAATGGCCATGGACCGGTTTTCCCGGTAATCCGTATTTGCA (site CAATGGCCTTG)” are within 0.2 log units of each other in “recombinant UMI read abundance (log10)” value: 0.00563 for the first, 0.089 for the second.

“TAATGGCCATGGACCGGTTTTCCCGGTAATCCGTATTTGCA (site GAATGGCCTTG)” and “TAATGGCCATGGACCGGTTTTCCCGGTAATCCGTATTTGCA (site TAATGGCCTTG)” are within 0.2 log units of each other in “recombinant UMI read abundance (log10)” value: 0.00525 for the first, 0.0063 for the second.

Compared with “TAATTCGCATGGACCGGTTTTCCCGGTAATCCGTATTTGTG (site TAATTCGCTCA)”, “TACACCTCATGGACCGGTTTTCCCGGTAATCCGTATTTGAA (site TACACCTCTTT)” is higher in “recombinant UMI read abundance (log10)” value: 0.0276 for the first, 0.804 for the second.

Going from “TACACCTCATGGACCGGTTTTCCCGGTAATCCGTATTTGCA (site TACACCTCTTG)” to “TACAGCCCATGGACCGGTTTTCCCGGTAATCCGTATTTGGA (site TACAGCCCTTC)”, the “recombinant UMI read abundance (log10)” value falls from 2.35 to 0.0282.

Going from “TACATCCCATGGACCGGTTTTCCCGGTAATCCGTATTTGAG (site TACATCCCTCT)” to “TACATGACATGGACCGGTTTTCCCGGTAATCCGTATTTGCG (site TACATGACTCG)”, the “recombinant UMI read abundance (log10)” value rises from 0.0123 to 1.12.

Going from “TACATGACATGGACCGGTTTTCCCGGTAATCCGTATTTGTG (site TACATGACTCA)” to “TACATGTCATGGACCGGTTTTCCCGGTAATCCGTATTTGTC (site TACATGTCTGA)”, the “recombinant UMI read abundance (log10)” value rises from 0.61 to 1.56.

In the case of “TACCCACCATGGACCGGTTTTCCCGGTAATCCGTATTTGAC (site TACCCACCTGT)”, the “recombinant UMI read abundance (log10)” value is reported as 0.
